Source: PubChem BioAssay AID248 (DTP/NCI, 2004)
Several values for one entry are separate records, joined by “and”; a condition that tells them apart may be missing. Equal values may be shown once. Inconclusive results and toxic doses are left out. Rule as the data show it: active = T/C of 150% or more; inactive = T/C below 125%.

System: L1210 leukemia ip in BDF1 mice, survival T/C
Test: NCI In Vivo Anticancer Drug Screen. Data for tumor model L1210 Leukemia (intraperitoneal) in B6D2F1 (BDF1) mice
Conditions: endpoint: mean survival time, higher = longer survival
In short: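 Each compound was tested against a transplantable tumor grown in mice. The endpoint was survival, with treated animals benchmarked against vehicle controls as a simple ratio.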

[1] = dose: 100.0 mg/kg/injection, schedule: Q04DX003 (ip), vehicle: saline
[2] = dose: 200.0 mg/kg/injection, schedule: Q04DX003 (ip), vehicle: saline
[3] = dose: 400.0 mg/kg/injection, schedule: Q04DX003 (ip), vehicle: saline
[4] = dose: 100.0 mg/kg/injection, schedule: Q04DX003 (ip), vehicle: Klucel (hydroxypropylcellulose) (HPC)
[5] = dose: 200.0 mg/kg/injection, schedule: Q04DX003 (ip), vehicle: Klucel (hydroxypropylcellulose) (HPC)
[6] = dose: 400.0 mg/kg/injection, schedule: Q04DX003 (ip), vehicle: Klucel (hydroxypropylcellulose) (HPC)
[7] = dose: 100.0 mg/kg/injection, schedule: Q01DX001 (ip), vehicle: other
[8] = dose: 100.0 mg/kg/injection, schedule: Q01DX001 (ip), vehicle: saline
[9] = dose: 100.0 mg/kg/injection, schedule: Q01DX009 (ip), vehicle: saline with Tween-80
[10] = dose: 200.0 mg/kg/injection, schedule: Q01DX001 (ip), vehicle: saline
[11] = dose: 200.0 mg/kg/injection, schedule: Q01DX009 (ip), vehicle: saline with Tween-80
[12] = dose: 400.0 mg/kg/injection, schedule: Q01DX001 (ip), vehicle: saline
[13] = dose: 400.0 mg/kg/injection, schedule: Q01DX009 (ip), vehicle: saline with Tween-80
[14] = dose: 100.0 mg/kg/injection, schedule: Q01DX009 (ip), vehicle: Klucel (hydroxypropylcellulose) (HPC)
[15] = dose: 200.0 mg/kg/injection, schedule: Q01DX009 (ip), vehicle: Klucel (hydroxypropylcellulose) (HPC)
[16] = dose: 400.0 mg/kg/injection, schedule: Q01DX009 (ip), vehicle: Klucel (hydroxypropylcellulose) (HPC)

Measured: T/C

OCC(O)COc1cccc2cccnc12 (centres undefined)
inactive: [1] 110 % of control | [2] 101 % of control | [3] 103 % of control

O=C(Nc1ccc(N=Nc2ccccc2)cc1)Nc1cc([N+](=O)[O-])ccc1F
inactive: [4] 86 % of control | [5] 86 % of control | [6] 91 % of control

Cn1c(=O)c2c(nc(OCC3CCCCC3)n2C)n(C)c1=O
inactive: dose: 50.0 mg/kg/injection, schedule: Q01DX001 (ip), vehicle: other 94 % of control | [7] 100 % of control | dose: 200.0 mg/kg/injection, schedule: Q01DX001 (ip), vehicle: other 94 % of control | dose: 400.0 mg/kg/injection, schedule: Q01DX001 (ip), vehicle: other 92 % of control

O=C(CCCc1ccc(N(CCCl)CCCl)cc1)NC1CCCC1
inactive: dose: 4.0 mg/kg/injection, schedule: Q12HX018 (ip), vehicle: other 103 % of control | dose: 6.0 mg/kg/injection, schedule: Q12HX018 (ip), vehicle: other 98 % of control | dose: 8.0 mg/kg/injection, schedule: Q12HX018 (ip), vehicle: other 103 % of control

CCOP(=O)(CCBr)Oc1ccc([N+](=O)[O-])cc1 (centres undefined)
inactive: dose: 0.5 mg/kg/injection, schedule: Q01DX001 (ip), vehicle: saline 97 % of control | dose: 1.0 mg/kg/injection, schedule: Q01DX001 (ip), vehicle: saline 97 % of control | dose: 2.0 mg/kg/injection, schedule: Q01DX001 (ip), vehicle: saline 103 % of control | dose: 4.0 mg/kg/injection, schedule: Q01DX001 (ip), vehicle: saline 107 % of control

CN(C)C=Nc1ccc([N+](=O)[O-])cc1
inactive: dose: 50.0 mg/kg/injection, schedule: Q01DX001 (ip), vehicle: saline 89 % of control | [8] 89 % of control | [9] 96 % of control | [10] 96 % of control | [11] 89 % of control | [12] 91 % of control | [13] 90 % of control

Cc1nc(N)nc(N)c1Cc1ccc(N=[N+]=[N-])cc1
inactive: dose: 25.0 mg/kg/injection, schedule: Q04DX002 (ip), vehicle: saline with Tween-80 98 % of control | dose: 50.0 mg/kg/injection, schedule: Q04DX002 (ip), vehicle: saline with Tween-80 113 % of control

CC1=C(c2ccccc2)C(c2ccccc2)=C(C)C1=O
inactive: dose: 50.0 mg/kg/injection, schedule: Q01DX001 (ip), vehicle: carboxymethylcellulose (CMC) 97 % of control | dose: 100.0 mg/kg/injection, schedule: Q01DX001 (ip), vehicle: carboxymethylcellulose (CMC) 95 % of control | dose: 200.0 mg/kg/injection, schedule: Q01DX001 (ip), vehicle: carboxymethylcellulose (CMC) 89 % of control | dose: 400.0 mg/kg/injection, schedule: Q01DX001 (ip), vehicle: carboxymethylcellulose (CMC) 95 % of control

FC(F)(F)C(Cl)(Cc1ccc2ccccc2n1)C(F)(F)F
inactive: dose: 50.0 mg/kg/injection, schedule: Q04DX003 (ip), vehicle: saline with Tween-80 102 % of control | [9] 105 % of control | dose: 100.0 mg/kg/injection, schedule: Q04DX003 (ip), vehicle: saline with Tween-80 101 % of control | [11] 100 % of control | dose: 200.0 mg/kg/injection, schedule: Q04DX003 (ip), vehicle: saline with Tween-80 102 % of control | [13] 103 % of control | dose: 400.0 mg/kg/injection, schedule: Q04DX003 (ip), vehicle: saline with Tween-80 94 % of control

CCCCCCCCCCCCCCCC[N+]1(C)CCS(C)(OS(=O)(=O)OC)CC1 (centres undefined)
inactive: dose: 6.25 mg/kg/injection, schedule: Q01DX001 (ip), vehicle: saline 95 % of control | dose: 12.5 mg/kg/injection, schedule: Q01DX001 (ip), vehicle: saline 88 % of control | dose: 25.0 mg/kg/injection, schedule: Q01DX001 (ip), vehicle: saline 88 % of control

CC(C)C(C#N)(CCN1CCCCC1)c1cccc2ccccc12 (centres undefined)
inactive: [14] 92 % of control

COc1ccc(Br)c(CCC(C)C)c1OC
inactive: [14] 92 % of control | [4] 108 % of control | [15] 95 % of control | [5] 108 % of control | [16] 101 % of control | [6] 104 % of control

NC(=S)N/N=C/c1ccc(F)cc1
inactive: dose: 60.0 mg/kg/injection, schedule: Q01DX Z (oral), vehicle: methylcellulose (MC) 90 % of control | dose: 120.0 mg/kg/injection, schedule: Q01DX Z (oral), vehicle: methylcellulose (MC) 87 % of control

CN(C)C(=O)NN1CCCCCC1
inactive: [1] 96 % of control | [2] 96 % of control | [3] 100 % of control

C[N-]C.C[N-]C.[Cl][Pt+2][Cl]
inactive: [8] 113 % of control | dose: 100.0 mg/kg/injection, schedule: Q01DX009 (ip), vehicle: saline 100 % of control | [10] 107 % of control | dose: 200.0 mg/kg/injection, schedule: Q01DX009 (ip), vehicle: saline 88 % of control | [12] 119 % of control

COc1cc2c(cc1[N+](=O)[O-])-c1ccc([N+](=O)[O-])cc1/C2=N/NC(N)=S
inactive: dose: 75.0 mg/kg/injection, schedule: Q01DX001 (ip), vehicle: carboxymethylcellulose (CMC) 101 % of control

COc1ccc(C2CCC(=O)CC2C(=O)O)cc1 (centres undefined)
inactive: [14] 92 % of control | [4] 110 % of control | [15] 97 % of control | [5] 98 % of control | [16] 103 % of control | [6] 93 % of control

S=C1CC2CCCC(C2)N1 (centres undefined)
inactive: dose: 10.0 mg/kg/injection, schedule: Q01DX001 (ip), vehicle: carboxymethylcellulose (CMC) 93 % of control | dose: 20.0 mg/kg/injection, schedule: Q01DX001 (ip), vehicle: carboxymethylcellulose (CMC) 93 % of control | dose: 80.0 mg/kg/injection, schedule: Q01DX001 (ip), vehicle: carboxymethylcellulose (CMC) 100 % of control

Cc1ccc(NCC(O)CN2CCOCC2)cc1 (centres undefined)
inactive: dose: 3.0 mg/kg/injection, schedule: Q04DX003 (ip), vehicle: Klucel (hydroxypropylcellulose) (HPC) 107 % of control | dose: 6.0 mg/kg/injection, schedule: Q01DX009 (ip), vehicle: Klucel (hydroxypropylcellulose) (HPC) 101 % of control | dose: 6.0 mg/kg/injection, schedule: Q04DX003 (ip), vehicle: Klucel (hydroxypropylcellulose) (HPC) 100 % of control | dose: 12.0 mg/kg/injection, schedule: Q01DX009 (ip), vehicle: Klucel (hydroxypropylcellulose) (HPC) 93 % of control | dose: 12.0 mg/kg/injection, schedule: Q04DX003 (ip), vehicle: Klucel (hydroxypropylcellulose) (HPC) 103 % of control | dose: 24.0 mg/kg/injection, schedule: Q01DX009 (ip), vehicle: Klucel (hydroxypropylcellulose) (HPC) 106 % of control | [7] 101 % of control

O=C(O)c1nccc2c([N+](=O)[O-])cccc12
inactive: [1] 97 % of control | [2] 97 % of control | [3] 92 % of control

CN(Cc1cnc2cc(N)nc(N)c2n1)c1ccc(C(=O)O)cc1
inactive: dose: 25.0 mg/kg/injection, schedule: Q01DX009 (ip), vehicle: other 108 % of control | dose: 50.0 mg/kg/injection, schedule: Q01DX009 (ip), vehicle: other 106 % of control | dose: 75.0 mg/kg/injection, schedule: Q01DX001 (ip), vehicle: other 98 % of control | dose: 100.0 mg/kg/injection, schedule: Q01DX009 (ip), vehicle: other 101 % of control | dose: 150.0 mg/kg/injection, schedule: Q01DX001 (ip), vehicle: other 102 % of control | dose: 300.0 mg/kg/injection, schedule: Q01DX001 (ip), vehicle: other 105 % of control

CCN(c1ccccc1)P(I)(c1ccccc1)(c1ccccc1)c1ccccc1
inactive: dose: 1.17 mg/kg/injection, schedule: Q01DX001 (ip), vehicle: other 107 % of control | dose: 2.34 mg/kg/injection, schedule: Q01DX001 (ip), vehicle: other 114 % of control | dose: 4.69 mg/kg/injection, schedule: Q01DX001 (ip), vehicle: other 107 % of control

CCOC(=O)C1C(=O)C(C(C2C(=O)C(C(=O)OCC)C(c3ccc(O)cc3)C(C(=O)OCC)C2=O)C(O)C(O)C(O)CO)C(=O)C(C(=O)OCC)C1c1ccc(O)cc1 (centres undefined) (tested in a mixture with another compound)
inactive: dose: 50.0 mg/kg/injection, schedule: Q01DX009 (ip), vehicle: Klucel (hydroxypropylcellulose) (HPC) 101 % of control and 96 % of control | [14] 93 % of control and 96 % of control | [15] 104 % of control and 107 % of control
